The values below come from PMC5893419 (Bioorganic & medicinal chemistry letters, 2018).

For one assay, the system named is Staphylococcus spp. Briefly: Antistaphylococcal activity, summary of broth microdilution MICs. It counts as cell-based. A general note: Dilution methods test growth across graded concentrations, often in twofold steps.
The next assay has as its system Micrococcus luteus SK58. In words: microbe, parasite or virus in culture. It counts as cell-based.
For assay [1], the system named is methicillin-resistant Staphylococcus aureus (MRSA). As to conditions: in vitro growth of MRSA; cited from earlier work.
Assay [2] deals with VAN-resistant S. aureus (VRSA). Particulars: against VRSA; cited from earlier work.
In another assay the test system is MRSA COL. Briefly: microbe, parasite or virus in culture. Particulars: Staphylococcus aureus, 20 h.
[3] abbreviates: range over staphylococcal strains of Table 1.
[4] abbreviates: range over staphylococcal strains, converted from μM.

Converted amounts (≈) assume the structure as drawn.

In the case of `CCCCCCCSSC(=S)N(CC)CC` [1i], the “MIC range, antistaphylococcal activity” value fell in the range of 2 to 4 µM in the assay on Staphylococcus spp. (setting [3]) and 0.6 to 1.2 µg/mL in the assay on Staphylococcus spp. (setting [4]).
In the assay on Micrococcus luteus SK58, `CCCCCCCCSSC(=S)N(CC)CC` [1j, 1-[(diethylcarbamothioyl)disulfanyl]octane] showed an MIC greater than 32 µM. In addition, the “MIC range, antistaphylococcal activity” value in the assay on Staphylococcus spp. (setting [3]) lay within 2 to 4 µM; against Staphylococcus spp. (setting [4]), 0.6 to 1.2 µg/mL.
In the case of `CCN(CC)C(=S)SSC(=S)N(CC)CC` [disulfiram], the “minimum inhibitory concentration (MIC) range” value in assay [1] is 4 to 32 µg/mL. Besides, the “interaction with vancomycin (VAN)” value in assay [2] was “synergism”.
In the assay with MRSA COL, `CN[C@H](CC(C)C)C(=O)N[C@H]1C(=O)N[C@@H](CC(N)=O)C(=O)N[C@H]2C(=O)N[C@H]3C(=O)N[C@H](C(=O)N[C@H](C(=O)O)c4cc(O)cc(O)c4-c4cc3ccc4O)[C@H](O)c3ccc(c(Cl)c3)Oc3cc2cc(c3O[C@@H]2O[C@H](CO)[C@@H](O)[C@H](O)[C@H]2O[C@H]2C[C@](C)(N)[C@H](O)[C@H](C)O2)Oc2ccc(cc2Cl)[C@H]1O` [vancomycin] gave an MIC of 2 µg/mL (≈ 1.38 µM).
